Reference: patent US12616753B2, “HSP70 inhibitors and methods of using same” (THE WISTAR INSTITUTE, priority 2020, dated 2026)

How the values were obtained:
[1] = test system: MC38 cells; assay: In vivo metastasis assay (tail vein injection, C57Bl/6 mice); design: species or system mouse; conditions: 10 mg/kg every 48 hours, 3 weeks
Procedure: FIG. 24A: MC38 cells were subjected to invasion assays using BioCoat Matrigel transwells in the presence of the indicated concentrations of AP-4-139B. 24 hours later, cells were fixed and stained with Crystal Violet. Shown are representative images taken from 8 random fields of view per well. Scale bar=100 μm. FIG. 24B: Quantification of FIG. 24A *** p<0.001. FIG. 24C: Schematic representation of the metastasis assay. 4×10^5 MC38 cells were injected into the tail vein of 8-10 week old male C57Bl/6 mice. Mice were treated with i.p. injection of 10 mg/kg AP-4-139B every 48 hours. After 3 weeks, the lungs of mice were formalin fixed and H&E stained, and assessed for the presence of metastatic nodules. […] FIG. 24E: Quantification of FIG. 24D. n=5 mice per group. * p<0.05.
For in vivo metastasis assays, 8-10 week old male C57Bl/6 mice were injected with 4×10^5 MC38 cells. […] At the end of the study, mice were euthanized, lungs were harvested and fixed in formalin for analysis of lung tumor nodules by H&E. For anti-tumor vaccination studies, MC38 cells were treated with 10 μM AP-4-139B for 48 h, resulting in approximately 20% cell death (as assessed by Trypan Blue staining). […] Ten days later, mice were challenged on the right flank with 5×10^5 live MC38 cells, and tumor growth and incidence were monitored 3 times per week. […]

[2] = test system: MC38 tumors; assay: Syngeneic model of MC38 tumors in C57Bl/6 mice; type: in vivo, mouse; conditions: 10 mg/kg every 48 hours
Procedure: FIGS. 5A-5F show AP-4-139B is efficacious against CRC in an immunocompetent model, and causes immune cell recruitment. FIGS. 5A-5B: Mouse CRC cell lines, MC38 (FIG. 5A) and CT26 (FIG. 5B), were plated at a density of 1,000 cells per well in 96-well plates. The next day, cells were treated with the indicated inhibitors for 72 hours. Cells were then subjected to the Alamar Blue cell viability assays. Shown are representative IC50 values of an average of six technical replicates and two biological replicates. FIG. 5C: Mouse CRC cell lines MC38 and CT26 were treated with 10 μM AP-4-139B for 24 or 48 hours and immunoblotted for HSP70, p53, AKT, Cleaved Lamin A (CLA), Cleaved Caspase 3, MRPS14, and GAPDH (loading control). The doublet detected for HSP70 is seen in other murine cell lines, and may represent a degradation product or post-translational modification. FIG. 5D: 1×10^6 MC38 cells were injected subcutaneously into the right flank of 6-8 week old male C57Bl/6 mice. Once tumors reached an approximate volume of 50 mm^3, mice were separated randomly into two groups: vehicle vs. AP-4-139B. Mice were treated with 10 mg/kg AP-4-139B every 48 hours. All mice were euthanized 20 days after the start of treatment. Tumor volumes were recorded using digital calipers and using the formula v=length×width^2×0.52. *** p<0.001. n=15 mice per group.
FIG. 5E: Immunohistochemistry (IHC) analysis of MC38 tumors treated with AP-4-139B. Shown are representative images (4-6 random fields of view per condition from four independent tumors) of CD8^+ T cells and Granzyme B (marker for activated immune cells). Respective IgG antibody was used as the negative control. Scale bars=100 μm. FIG. 5F: Quantification of FIG. 5E * p<0.05; ** p<0.01.
FIG. 9A: Body weights of mice injected with HT-29 tumor xenografts. Weights were measured at the start of the treatment to determine mouse toxicity. n.s. not significant, n=15 mice per group. FIG. 9B: Immunohistochemistry (IHC) analysis of MC38 tumors treated with AP-4-139B. Shown are representative images (4-6 random fields of view per condition from four independent tumors) of CD4^+ T cells. Respective IgG antibody was used as the negative control. Scale bars=100 μm. FIG. 9C: Quantification of FIG. 9B.
All studies were carried out in accordance with the recommendations in the Guide for the Care and Use of Laboratory Animals of the National Institutes of Health (NIH). All protocols were approved by The Wistar Institute Institutional Animal Care and Use Committee (IACUC). […] Tumor volumes were measured using digital calipers and tumor volume was calculated using the formula: volume=(length×width^2)×0.52. All mice were monitored daily for signs of pain or distress.

[3] = test system: MC38 cells; assay: Anti-tumor vaccination study in C57BL/6 mice; type: in vivo, mouse
Procedure: FIG. 25A: C57Bl/6 mice were injected with either PBS or AP-4-139B pre-treated MC38 cells into the left flank. 10 days later, the same mice were injected with untreated MC38 cells in the right flank. […] Log rank test p<0.0001. FIG. 25B: Tumor growth measured in mice in FIG. 25A over 25 days. n=15 mice per group. Wilcox rank-sum test p<0.0001.
(§1) For in vivo metastasis assays, 8-10 week old male C57Bl/6 mice were injected with 4×10^5 MC38 cells. Mice were then treated with either vehicle or 10 mg/kg AP-4-139B every 48 hours for 3 weeks. At the end of the study, mice were euthanized, lungs were harvested and fixed in formalin for analysis of lung tumor nodules by H&E. For anti-tumor vaccination studies, MC38 cells were treated with 10 μM AP-4-139B for 48 h, resulting in approximately 20% cell death (as assessed by Trypan Blue staining). 2×10^6 pre-treated MC38 cells or PBS was inoculated subcutaneously into the left flank of 8-10 week old male C57BL/6 mice. Ten days later, mice were challenged on the right flank with 5×10^5 live MC38 cells, and tumor growth and incidence were monitored 3 times per week. The absence of tumors was scored as an indication for efficient antitumor vaccination.

[4] = test system: 1205LU melanoma xenografts; assay: 1205Lu melanoma xenograft in NSG mice; type: in vivo, mouse; conditions: i.p. twice per week
Procedure: 1205LU melanoma xenografts in NSG mice were established. When tumors reached 100 mm^3 in volume, mice were treated twice per week with the i.p. doses of AP-4-139B indicated.
AP-4-139B was tested as a single agent in a 1205Lu melanoma xenograph in mice. 1205LU melanoma xenografts in NSG mice were established. When tumors reached 100 mm^3 in volume, mice were treated twice per week with the i.p. doses of AP-4-139B indicated.

[5] = test system: MC38 cells; assay: Cell death of MC38 cells pre-treated for vaccination (Trypan Blue staining); type: cell-based, mouse; conditions: 10 μM, 48 h
Procedure: as §1

[6] = Half-life of PET-16 in plasma

SMILES | number of tumor nodules in the lung [1] | CD4+ T cells in tumors (IHC) [2] | infiltrating CD8+ T cells in tumors (IHC) [2] | weight loss of mice during treatment [2] | efficacy in syngeneic MC38 tumors ([2]; p<0.001) | tumor size in vaccine-treated mice ([3]; over 25 days) | mice that developed tumors on the right flank ([3]; vaccinated with pre-treated MC38 cells, control 15 of 15) | tumor growth, 1205Lu xenograft [4] | tumor weight, 1205Lu xenograft [4] | cell death of MC38 cells [5] | half-life [6]
c1ccc(-c2cn3nc(CCCCCC[P+](c4ccccc4)(c4ccccc4)c4ccccc4)sc3n2)cc1 [AP-4-139B, Triphenyl(6-(6-phenylimidazo[2,1-b][1,3,4]thiadiazol-2-yl)hexyl)phosphonium bromide] | markedly decreased number of tumor nodules in the lung | increase in CD4+ T cells | large percentage of infiltrating CD8^+ T cells | no evidence of weight loss | significant efficacy as a single agent | markedly reduced compared with control | 3 of 15 | inhibit tumor growth | reduce tumor weight | approximately 20% | –
C(#C[P+](c1ccccc1)(c1ccccc1)c1ccccc1)c1ccccc1 [PET-16, Triphenyl(phenylethynyl)phosphonium bromide, reference compound] | – | – | – | – | – | – | – | – | – | – | < 30 min
